Data from patent US20230257372A1 (CHONG KUN DANG PHARMACEUTICAL CORP., priority 2020, published 2023).
Like-named read-outs stand apart in the source and are kept apart here.

Key:
human recombinant HDAC6 = molecular target: T1, human recombinant HDAC6 (Homo sapiens, UniProt Q9UBN7); assay: HDAC6 enzyme activity inhibition (HDAC Fluorimetric Drug Discovery Kit); type: biochemical
T1 construct: purchased Calbiochem Inc. 382180
T1 sequence (Q9UBN7 1-1215): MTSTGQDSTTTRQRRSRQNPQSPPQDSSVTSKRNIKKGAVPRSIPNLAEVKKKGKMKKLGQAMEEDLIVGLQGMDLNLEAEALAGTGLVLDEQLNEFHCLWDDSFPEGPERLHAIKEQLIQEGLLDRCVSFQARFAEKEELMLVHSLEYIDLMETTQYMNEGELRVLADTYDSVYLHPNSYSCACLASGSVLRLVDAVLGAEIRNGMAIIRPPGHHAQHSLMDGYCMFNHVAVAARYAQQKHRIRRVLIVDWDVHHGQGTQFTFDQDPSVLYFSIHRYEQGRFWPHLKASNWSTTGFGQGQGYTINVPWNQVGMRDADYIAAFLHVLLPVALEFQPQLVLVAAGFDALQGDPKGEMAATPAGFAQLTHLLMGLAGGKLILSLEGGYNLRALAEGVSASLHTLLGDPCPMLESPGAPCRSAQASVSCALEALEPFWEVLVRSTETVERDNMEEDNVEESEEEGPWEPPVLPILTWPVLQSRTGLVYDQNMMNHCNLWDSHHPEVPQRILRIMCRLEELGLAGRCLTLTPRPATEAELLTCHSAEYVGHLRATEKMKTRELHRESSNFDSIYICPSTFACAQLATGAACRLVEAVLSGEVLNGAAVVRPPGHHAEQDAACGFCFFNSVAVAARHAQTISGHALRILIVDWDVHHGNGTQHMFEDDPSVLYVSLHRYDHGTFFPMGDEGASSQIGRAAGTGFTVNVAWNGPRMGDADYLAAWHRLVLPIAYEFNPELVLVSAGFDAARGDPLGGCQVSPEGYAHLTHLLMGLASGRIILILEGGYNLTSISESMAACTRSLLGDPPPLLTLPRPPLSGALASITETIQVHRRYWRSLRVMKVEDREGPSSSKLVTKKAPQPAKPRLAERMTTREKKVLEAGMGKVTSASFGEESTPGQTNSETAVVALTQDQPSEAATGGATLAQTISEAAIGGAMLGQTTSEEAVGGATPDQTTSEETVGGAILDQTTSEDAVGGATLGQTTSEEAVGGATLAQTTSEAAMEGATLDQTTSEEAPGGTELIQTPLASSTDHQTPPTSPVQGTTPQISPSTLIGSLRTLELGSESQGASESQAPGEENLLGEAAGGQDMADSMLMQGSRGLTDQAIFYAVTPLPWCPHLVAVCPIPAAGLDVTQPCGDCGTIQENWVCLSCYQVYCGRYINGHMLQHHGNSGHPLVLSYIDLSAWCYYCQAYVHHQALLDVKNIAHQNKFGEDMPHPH
In short: (§1)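 Enzyme at 0.3 µg per well was reacted with 10 μM fluorogenic substrate in presence of 5-fold diluted compound, 30° C for 60 min.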

human recombinant HDAC1 = molecular target: T2, human recombinant HDAC1 (Homo sapiens, UniProt Q13547); assay: HDAC1 enzyme activity inhibition (HDAC Fluorimetric Drug Discovery Kit); type: biochemical; conditions: read-out: HDAC1
T2 construct: purchased Enzo Life Science, Inc. BML-SE456
In short: as §1

[1] = human recombinant HDAC6, IC50 calculated with GraphPad Prism
[2] = human recombinant HDAC1, IC50 calculated with GraphPad Prism
[3] = human recombinant HDAC6, same protocol as HDAC1
[4] = human recombinant HDAC1, Fluor de Lys substrate, 30° C. 60 minutes

T2 sequence (Q13547 whole entry): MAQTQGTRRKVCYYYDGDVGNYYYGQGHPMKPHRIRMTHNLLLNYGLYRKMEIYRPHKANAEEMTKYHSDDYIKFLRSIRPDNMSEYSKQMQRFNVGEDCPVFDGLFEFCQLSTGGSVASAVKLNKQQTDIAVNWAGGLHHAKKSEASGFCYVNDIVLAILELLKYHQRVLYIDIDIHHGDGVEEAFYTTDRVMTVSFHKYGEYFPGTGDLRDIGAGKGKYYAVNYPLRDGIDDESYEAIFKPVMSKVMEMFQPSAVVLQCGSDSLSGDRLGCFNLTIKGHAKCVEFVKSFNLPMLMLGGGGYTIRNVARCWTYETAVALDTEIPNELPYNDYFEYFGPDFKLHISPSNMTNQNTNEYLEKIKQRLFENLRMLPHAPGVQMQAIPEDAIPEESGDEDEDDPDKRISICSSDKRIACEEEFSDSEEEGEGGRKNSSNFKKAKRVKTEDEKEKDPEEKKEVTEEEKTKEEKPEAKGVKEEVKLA

Row | Compound | HDAC6 selectivity (fold) (human recombinant HDAC6; HDAC1 IC50 / HDAC6 IC50) | IC50 (human recombinant HDAC6; [1]) | IC50 (human recombinant HDAC1; [2]) | HDAC6 selectivity (fold) (human recombinant HDAC6; HDAC6 over HDAC1) | IC50 (human recombinant HDAC6; [3]) | IC50 (human recombinant HDAC1; [4])
1 | Cc1ccccc1-c1cn(Cc2ccc(-c3nnc(C(F)F)o3)cn2)nn1 [Compound 3860, 2-(difluoromethyl)-5-(6-((4-(o-tolyl)-1H-1,2,3-triazol-1-yl)methyl)pyridin-3-yl)-1,3,4-oxadiazole] | 391 fold | 128 nM | > 50000 nM |  |  | 
2 | CCN1CC(C(=O)Nc2cccc(-c3cn(Cc4ccc(-c5nnc(C(F)F)o5)cn4)nn3)c2)C1 [Compound 4464, N-(3-(1-((5-(5-(difluoromethyl)-1,3,4-oxadiazol-2-yl)pyridin-2-yl)methyl)-1H-1,2,3-triazol-4-yl)phenyl)-1-ethylazetidin-3-carboxamide] | 1650 fold | 30.3 nM | > 50000 nM |  |  | 
3 | CC(C)N1Cc2cccc(-c3cn(Cc4ccc(-c5nnc(C(F)F)o5)cn4)nn3)c2C1 [Compound 4597, 2-(difluoromethyl)-5-(6-((4-(2-isopropylisoindolin-4-yl)-1H-1,2,3-triazol-1-yl)methyl)pyridin-3-yl)-1,3,4-oxadiazole] |  |  |  | 813 fold | 61.5 nM | > 50000 nM
4 | CN(C)Cc1c(-c2ccccc2)nnn1Cc1ccc(-c2nnc(C(F)F)o2)cn1 [Compound 4490, 1-(1-((5-(5-(difluoromethyl)-1,3,4-oxadiazol-2-yl)pyridin-2-yl)methyl)-4-phenyl-1H-1,2,3-triazol-5-yl)-N,N-dimethylmethanamine] | 571 fold | 87.5 nM | > 50000 nM |  |  | 
5 | CN1CCN(c2cc(-c3cn(Cc4ccc(-c5nnc(C(F)F)o5)cc4F)nn3)ccc2F)CC1 [Compound 4424, 2-(difluoromethyl)-5-(3-fluoro-4-((4-(4-fluoro-3-(4-methylpiperazin-1-yl)phenyl)-1H-1,2,3-triazol-1-yl)methyl)phenyl)-1,3,4-oxadiazol] | 559 fold | 89.4 nM | > 50000 nM |  |  | 
6 | CN(C)CC(=O)Nc1cccc(-c2cn(Cc3ccc(-c4nnc(C(F)F)o4)cn3)nn2)c1 [Compound 4230, N-(3-(1-((5-(5-(difluoromethyl)-1,3,4-oxadiazol-2-yl)pyridin-2-yl)methyl)-1H-1,2,3-triazol-4-yl)phenyl)-2-(dimethylamino)acetamide] | 2173 fold | 23 nM | > 50000 nM |  |  | 
7 | Fc1cc(-c2nnc(C(F)F)o2)ccc1Cn1cc(-c2ccccc2CN2CCC2)nn1 [Compound 4583, 2-(4-((4-(2-(azetidin-1-ylmethyl)phenyl)-1H-1,2,3-triazol-1-yl)methyl)-3-fluorophenyl)-5-(difluoromethyl)-1,3,4-oxadiazole] |  |  |  | 138 fold | 360 nM | > 50000 nM
8 | Fc1cc(-c2nnc(C(F)F)o2)ccc1Cn1cc(-c2cccc(C(F)F)c2)nn1 [Compound 4488, 2-(difluoromethyl)-5-(4-((4-(3-(difluoromethyl)phenyl)-1H-1,2,3-triazol-1-yl)methyl)-3-fluorophenyl)-1,3,4-oxadiazole] | 1059 fold | 47.2 nM | > 50000 nM |  |  | 
9 | CN1CCN(Cc2ccccc2-c2cn(Cc3ccc(-c4nnc(C(F)F)o4)cc3F)nn2)CC1 [Compound 4587, 2-(difluoromethyl)-5-(3-fluoro-4-((4-(2-((4-methylpiperazin-1-yl)methyl)phenyl)-1H-1,2,3-triazol-1-yl)methyl)phenyl)-1,3,4-oxadiazole] |  |  |  | 274 fold | 182 nM | > 50000 nM
10 | CN(C)Cc1cccc(-c2cn(Cc3ncc(-c4nnc(C(F)F)o4)cc3F)nn2)c1 [Compound 18457, 1-(3-(1-((5-(5-(difluoromethyl)-1,3,4-oxadiazol-2-yl)-3-fluoropyridin-2-yl)methyl)-1H-1,2,3-triazol-4-yl)phenyl)-N,N-dimethylmethanamine] |  |  |  | 554 fold | 90.1 nM | > 50000 nM
11 | Fc1cc(-c2nnc(C(F)F)o2)cnc1Cn1cc(-c2cccs2)nn1 [Compound 17984, 2-(difluoromethyl)-5-(5-fluoro-6-((4-(thiophen-2-yl)-1H-1,2,3-triazol-1-yl)methyl)pyridin-3-yl)-1,3,4-oxadiazole] |  |  |  | 884 fold | 56.5 nM | > 50000 nM
12 | CN1CC(NCc2ccc(-c3cn(Cc4ccc(-c5nnc(C(F)F)o5)cc4F)nn3)cc2)C1 [Compound 4470, N-(4-(1-(4-(5-(difluoromethyl)-1,3,4-oxadiazol-2-yl)-2-fluorobenzyl)-1H-1,2,3-triazol-4-yl)benzyl)-1-methylazetidin-3-amine] | 915 fold | 54.6 nM | > 50000 nM |  |  | 

The remaining lines, values ahead:

Row | HDAC6 selectivity (fold) (human recombinant HDAC6; HDAC1 IC50 / HDAC6 IC50) | IC50 (human recombinant HDAC6; [1]) | IC50 (human recombinant HDAC1; [2]) | HDAC6 selectivity (fold) (human recombinant HDAC6; HDAC6 over HDAC1) | IC50 (human recombinant HDAC6; [3]) | IC50 (human recombinant HDAC1; [4]) | Compound
13 |  |  |  | 495 fold | 101 nM | > 50000 nM | CN1Cc2ccc(-c3cn(Cc4ccc(-c5nnc(C(F)F)o5)cc4)nn3)cc2C1 [Compound 4513, 2-(difluoromethyl)-5-(4-((4-(2-methylisoindolin-5-yl)-1H-1,2,3-triazol-1-yl)methyl)phenyl)-1,3,4-oxadiazole]
14 | 1116 fold | 44.8 nM | > 50000 nM |  |  |  | Fc1cc(-c2nnc(C(F)F)o2)ccc1Cn1cc(-c2ccc(CN3CCOCC3)cc2)nn1 [Compound 4471, 4-(4-(1-(4-(5-(difluoromethyl)-1,3,4-oxadiazol-2-yl)-2-fluorobenzyl)-1H-1,2,3-triazol-4-yl)benzyl)morpholine]
15 | 348 fold | 144 nM | > 50000 nM |  |  |  | FC(F)c1nnc(-c2ccc(Cn3cc(-c4cccc(CN5CCC(F)(F)CC5)c4)nn3)cc2)o1 [Compound 4413, 2-(difluoromethyl)-5-(4-((4-(3-((4,4-difluoropiperidin-1-yl)methyl)phenyl)-1H-1,2,3-triazol-1-yl)methyl)phenyl)-1,3,4-oxadiazole]
16 | 662 fold | 75.5 nM | > 50000 nM |  |  |  | FC(F)c1nnc(-c2ccc(Cn3cc(-c4cccc(CN5CCOCC5)c4)nn3)cc2)o1 [Compound 4411, 4-(3-(1-(4-(5-(difluoromethyl)-1,3,4-oxadiazol-2-yl)benzyl)-1H-1,2,3-triazol-4-yl)benzyl)morpholine]
17 |  |  |  | 801 fold | 62.4 nM | > 50000 nM | CN1CC(NCc2ccc(-c3cn(Cc4ccc(-c5nnc(C(F)F)o5)cc4)nn3)cc2)C1 [Compound 4557, N-(4-(1-(4-(5-(difluoromethyl)-1,3,4-oxadiazol-2-yl)benzyl)-1H-1,2,3-triazol-4-yl)benzyl)-1-methylazetidin-3-amine]
18 | 1976 fold | 16.8 nM | > 50000 nM |  |  |  | CN1CCN(c2ccc(F)c(-c3cn(Cc4ccc(-c5nnc(C(F)F)o5)cc4)nn3)c2)CC1 [Compound 4451, 2-(difluoromethyl)-5-(4-((4-(2-fluoro-5-(4-methylpiperazin-1-yl)phenyl)-1H-1,2,3-triazol-1-yl)methyl)phenyl)-1,3,4-oxadiazole]
19 | 478 fold | 105 nM | > 50000 nM |  |  |  | FC(F)c1nnc(-c2ccc(Cn3cc(-c4cccc5cc[nH]c45)nn3)cc2)o1 [Compound 4081, 2-(4-((4-(1H-indol-7-yl)-1H-1,2,3-triazol-1-yl)methyl)phenyl)-5-(difluoromethyl)-1,3,4-oxadiazole]
